Reference: ChEMBL document CHEMBL2157881, “Labeled Ligand Displacement: Extending NMR-Based Screening of Protein Targets” (ACS Med Chem Lett, 2010)
The source made the active and inactive calls. The rule behind the calls is not given here.

What was measured:
[1] = Binding affinity HSP90 ATPase domain assessed as broadening of compound signals using [13C]labeled compound at 200 uM by NMR spectroscopy
[2] = Binding affinity to HSP90 ATPase domain by TR-FRET assay
[3] = Binding affinity bovine carbonic anhydrase by surface plasma resonance method; design: species or system Bos taurus
[4] = species: Bos taurus; assay: Binding affinity bovine carbonic anhydrase assessed as broadening of compound signals using [13C]labeled compound at 20 uM by NMR spectroscopy
[5] = Binding affinity bovine carbonic anhydrase; design: species or system Bos taurus
[6] = Binding affinity to HSP90 ATPase domain assessed as broadening of compound signals using [13C]labeled compound at 20 uM by NMR spectroscopy
[7] = Binding affinity HSP90 ATPase domain at 100 uM by STD competition spectroscopy

Question: Which results are given for `Cc1cc(-c2cccc3ccccc23)nc(N)n1`?
Answer: Activity [1]: Active; Ki [2]: 5 µM

Question: For `NS(=O)(=O)c1ccc(F)cc1`, which Kd [3] is on record?
Answer: 1 µM

Question: And the Activity [4]?
Answer: Active

Question: Which Ki [5] does the source give for `CCN1CCCC1CNC(=O)c1cc(S(N)(=O)=O)ccc1OC` (centres undefined) [SULPIRIDE] here?
Answer: 48 µM

Question: What does the source list for `COc1ccc(Cl)cc1-c1cc(C)nc(N)n1`?
Answer: Ki [2]: 11 µM; Activity [6]: Dose-dependent effect; Activity [7]: Active

Question: Which Ki [2] does the source give for `Cc1cc(-c2ccccc2)nc(N)n1` here?
Answer: 14 µM
